# From publication PMC10151334, “Anti-proliferative potential and oxidative reactivity of thermo-oxidative degradation products of stigmasterol and stigmasteryl esters for human intestinal cells” (Scientific Reports, 2023)
# Columns and labels:
# [1] = test system: CCD 841 CoN cells; test: MultiTox-Fluor Multiplex Cytotoxicity Assay (live and dead cell fluorescence); format: cell-based
# Procedure: The normal human diploid CCD 841 CoN cell line (ATCC® CRL-1790™) isolated from colon mucosa was obtained from American Type Culture Collection (ATCC, Manassas, VA, USA). Cells were cultured in Dulbecco’s Modified Eagle’s Medium (DMEM, Sigma-Aldrich) supplemented with fetal bovine serum (FBS; Gibco BRL, Grand Island, NY, USA) to a final concentration of 10% and maintained at 37 °C in a humidified atmosphere with 5% CO2.
# In the cytotoxicity experiments, CCD 841 CoN cells were seeded in 96-well plates at an initial density of 2.0 × 10^4 cells/cm^2 and incubated for 24 h. […] Control culture contained the vehicle at the amount corresponding to the sample analyzed.
# The Multitox-Fluor Multiplex Cytotoxicity Assay (Promega GmbH, Mannheim, Germany) was applied to determine the relative number of live and dead cells in the CCD 841 CoN cell cultures treated with the analyzed compounds. The assay determined live- and dead-cell protease activities using two fluorogenic peptide substrates, cell-permeant (glycyl-phenylalanyl-amino fluorocoumarin; GF-AFC) and cell-impermeant (bis-alanyl-alanyl-phenylalanyl-rhodamine 110; bis-AAF-R110). After treatment, the cells were incubated with GF-AFC and bis-AAF-R110 substrates for 60 min at 37 °C. The live- and dead-cell proteases produced AFC and R110 products, measured using a Tecan M200 Infinite microplate reader (Tecan Group Ltd., Männedorf, Switzerland) at different excitation (400 nm and 485 nm) and emission (505 nm and 520 nm) spectra. The assay was conducted according to the manufacturer’s instructions.
# [2] = test system: CCD 841 CoN cells; test: DNA damage detection, comet assay (SCGE); format: cell-based, human; settings: 40 μg/mL, 48 h
# Procedure: The cells were grown at 6-well plates at the established density and standard culture conditions and exposed to the non-heated and heated ST, ST-OA, and ST-LA for 48 h. The non-treated cells and cells treated with H2O2 (100 μM, 30 min) to induce oxidative DNA damage constituted the negative and positive controls, respectively. After treatment, cells were analyzed for DNA damage using a single cell gel electrophoresis (SCGE) called comet assay, described in detail previously. Briefly, harvested cells suspended in low melting point agarose were put onto microscope slides pre-coated with normal melting point agarose and subjected sequentially to lysis, alkaline electrophoresis (pH > 13), and neutralization ([…]). The cells were stained with SYBRGold (Molecular Probes), viewed under a fluorescence microscope (Axiovert 200, Zeiss, Carl Zeiss, Gottingen, Germany), and analyzed using CometScore™ software (TriTek Corp., Sumerduck, VA, USA). At least 100 cells were analyzed on a microscope slide; 300 cells were considered for DNA damage detection in one sample. Data were expressed as the mean percentage of DNA content in the comet tail. […] Based on the comets' categorization, the total comet score (TCS) was calculated according to the formula: TCS = 0(n) + 1(n) + 2(n) + 3(n) + 4(n), where “n” is the number of cells in each comet class (0–4)[45].
# [3] = test system: S. typhimurium TA102; test: Bacterial reverse mutation assay (Ames test), strain TA102; settings: 40 μg/mL, regardless of metabolic activation (+/− S9)
# Procedure: Potential mutagenicity or pro-mutagenicity of non-heated and heated ST, ST-LA, and ST-OA was determined using the bacterial reverse mutation assay (Ames test) with Salmonella enterica subsp. enterica ser. typhimurium tester strains TA98, TA100, and TA102, which were obtained from the Polish Collection of Microorganisms of the Institute of Immunology and Experimental Therapy of the Polish Academy of Sciences in Wroclaw.
# Mutagenicity experiments were performed in the liquid pre-incubation assay, without and with metabolic activation by supplying Aroclor 1254-induced rat liver microsomal fraction (S9, Sigma-Aldrich) with NADP and cofactors for NADPH-supported oxidation, according to the procedure described by Mortelmans and Zeiger[39]. Briefly, reaction mixtures, consisting of 12-h bacterial culture, non-heated and heated compound (ST, ST-LA, ST-OA) at a concentration of 40 μg, 0.2 M phosphate buffer (pH 7.4), and alternatively S9 activating mixture, were pre-incubated at 37 °C for 20 min. […] The mutagen, 2-aminoanthracene (5 μg) (Sigma-Aldrich), was a positive control in pro-mutagenicity experiments. After pre-incubation, the reaction mixtures were added to the top agar supplemented with traces of histidine and biotin and poured onto the plates covered with minimum glucose agar. The cultures were incubated for 48 h at 37 °C, and the number of revertants (His+) colonies was counted manually.
# Compounds with MI ≥ 2 can be recognized as potentially mutagenic.
# [4] = Thermo-oxidative treatment at 180 °C for 8 h, degradation of the compound; format: physicochemical; settings: heated at 180 °C for 8 h under oxygen atmosphere
# Procedure: ST, ST-OA, and ST-LA (50 mg each) were placed separately in glass vials and heated at 180 °C for 8 h under an oxygen atmosphere. After thermo-oxidative treatment, the tested compounds were stored at − 20 °C until chemical and biological analyses. The non-heated and heated ST and its esters were analyzed to detect degradation products and oxyderivatives. Analytical methods were described in the article published previously.
smiles,measurement,setting,value
"CC[C@H](/C=C/[C@@H](C)[C@H]1CC[C@H]2[C@@H]3CC=C4C[C@@H](O)CC[C@]4(C)[C@H]3CC[C@]12C)C(C)C [ST, Stigmasterol]",decrease in the viable cell number,"[1]; 1 μg/mL, first cytotoxic effects",10%
same,reduction in number of viable cells / relative cell viability,"[1]; 40 μg/mL, 48-h treatment",approximately 80%
same,concentration at which first cytotoxic effects were observed,[1]; 48-h treatment,1000 ng/mL
same,"comets category 2 (medium DNA damage, 25 to 45% DNA in tail), share of cell population",[2],3.5%
same,"total comet score (TCS), comet class distribution vs control",[2],no significant differences
same,effect on TA102 revertants,[3],did not affect the number of TA102 revertants
same,Sterol moiety depletion (%),[4],80.4 ± 13.5%
